# Assay results taken from patent US20230085307A1, “PYRIDAZINONE COMPOUND AND HERBICIDE” (NISSAN CHEMICAL CORPORATION, priority 2019, published 2023).
# System: southern crabgrass
# Test: Test Example 5: herbicidal effect by foliage application, plastic box (Table 20, symbol F)
# Assay type: in vivo, southern crabgrass (Digitaria ciliaris)
# Conditions: foliage application, 320 g/ha, evaluated three weeks after application
# How it was run: (§1)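 Foliar spray test: emulsion formulation diluted in water to a set application rate, sprayed onto 14-day-old plants raised in diluvial soil at 25° C to 30° C under glass. Both herbicidal effect and crop effect rated visually three weeks later.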
row,SMILES,herbicidal effect on F: southern crabgrass (criteria 0-5)
1,CCCC(=O)Oc1c(C)nn(C)c(=O)c1-c1c(-c2cccc(OCC(C)C)c2)sc2ccc(F)cc12 [2-222],5 (Herbicidal rate of 90% or more (almost completely withered))
2,CCCCCOc1cccc(-c2sc3ccc(F)cc3c2-c2c(O)c(C)nn(C)c2=O)c1 [2-225],2 (Herbicidal rate of 20% or more and less than 40%)

# System: blackgrass
# Test: Test Example 4: herbicidal effect by soil treatment (Table 19, symbol J)
# Assay type: in vivo, blackgrass (Alopecurus myosuroides)
# Conditions: amount of applied herbicide 320 g/ha
# How it was run: (§2)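 Herbicidal effect was rated 3 weeks after treatment, using the scoring criteria of an earlier test. The compound, formulated as an emulsion and diluted in water to a set herbicide amount, had been sprayed uniformly on soil over freshly sown seeds. Growth took place in a greenhouse at 25° C. to 30° C.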
row,SMILES,herbicidal effect on J: blackgrass
1,CCCC(=O)Oc1c(C)nn(C)c(=O)c1-c1c(-c2cccc(OCC(C)C)c2)sc2ccc(F)cc12 [2-222],4 (Herbicidal rate of 70% or more and less than 90%)
2,CCCCCOc1cccc(-c2sc3ccc(F)cc3c2-c2c(O)c(C)nn(C)c2=O)c1 [2-225],0 (Herbicidal rate of 5% or less (almost no effect))

# System: Japanese bulrush
# Test: Test Example 2: herbicidal activity, application during weed generation under submerged conditions (Table 17, symbol B)
# Assay type: in vivo, Japanese bulrush (Schoenoplectus juncoides)
# Conditions: AAH 320 g/ha; application during weed generation, submerged conditions
# How it was run: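 Steps: fill Wagner pots with alluvial soil; add water to give 4 cm depth; sow the species mixed; grow under glass at 25–30° C.; at 1–2 leaves apply water-diluted emulsion formulation to the water surface at a fixed herbicide amount; score after 3 weeks.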
row,SMILES,"herbicidal effect rating, B: Japanese bulrush"
1,CCCC(=O)Oc1c(C)nn(C)c(=O)c1-c1c(-c2cccc(OCC(C)C)c2)sc2ccc(F)cc12 [2-222],3 (Herbicidal rate of 40% or more and less than 70%)
2,CCCCCOc1cccc(-c2sc3ccc(F)cc3c2-c2c(O)c(C)nn(C)c2=O)c1 [2-225],3 (Herbicidal rate of 40% or more and less than 70%)

# System: oval-leafed pondweed
# Test: Test Example 1: herbicidal activity, application before weed generation under submerged conditions (Table 16, symbol C)
# Assay type: in vivo, oval-leafed pondweed (Monochoria vaginalis)
# Conditions: 320 g/ha applied herbicide
# How it was run: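 Submerged Wagner pots (alluvial soil, 4 cm water) sown with weed seeds and planted with 2.5-leaf rice seedlings; emulsifiable concentrate diluted in water applied to water surface on sowing day. Held in greenhouse at 25-30 °C; injury scored 0-5 by herbicidal rate after three weeks.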
row,SMILES,Herbicidal effect on C: oval-leafed pondweed (grade 0-5)
1,CCCC(=O)Oc1c(C)nn(C)c(=O)c1-c1c(-c2cccc(OCC(C)C)c2)sc2ccc(F)cc12 [2-222],4 (Herbicidal rate of 70% or more and less than 90%)
2,CCCCCOc1cccc(-c2sc3ccc(F)cc3c2-c2c(O)c(C)nn(C)c2=O)c1 [2-225],3 (Herbicidal rate of 40% or more and less than 70%)

# System: green foxtail
# Test: Test Example 4: herbicidal effect by soil treatment (Table 19, symbol G)
# Assay type: in vivo, green foxtail (Setaria viridis)
# Conditions: amount of applied herbicide 320 g/ha
# How it was run: as §2
row,SMILES,herbicidal effect on G: green foxtail
1,CCCC(=O)Oc1c(C)nn(C)c(=O)c1-c1c(-c2cccc(OCC(C)C)c2)sc2ccc(F)cc12 [2-222],2 (Herbicidal rate of 20% or more and less than 40%)
2,CCCCCOc1cccc(-c2sc3ccc(F)cc3c2-c2c(O)c(C)nn(C)c2=O)c1 [2-225],0 (Herbicidal rate of 5% or less (almost no effect))

# System: velvetleaf
# Test: Test Example 4: herbicidal effect by soil treatment (Table 19, symbol M)
# Assay type: in vivo, velvetleaf (Abutilon theophrasti)
# Conditions: amount of applied herbicide 320 g/ha
# How it was run: as §2
row,SMILES,herbicidal effect on M: velvetleaf
1,CCCC(=O)Oc1c(C)nn(C)c(=O)c1-c1c(-c2cccc(OCC(C)C)c2)sc2ccc(F)cc12 [2-222],3 (Herbicidal rate of 40% or more and less than 70%)
2,CCCCCOc1cccc(-c2sc3ccc(F)cc3c2-c2c(O)c(C)nn(C)c2=O)c1 [2-225],0 (Herbicidal rate of 5% or less (almost no effect))

# System: wild oat
# Test: Test Example 4: herbicidal effect by soil treatment (Table 19, symbol I)
# Assay type: in vivo, wild oat (Avena fatua)
# Conditions: amount of applied herbicide 320 g/ha
# How it was run: as §2
row,SMILES,herbicidal effect on I: wild oat
1,CCCC(=O)Oc1c(C)nn(C)c(=O)c1-c1c(-c2cccc(OCC(C)C)c2)sc2ccc(F)cc12 [2-222],0 (Herbicidal rate of 5% or less (almost no effect))
2,CCCCCOc1cccc(-c2sc3ccc(F)cc3c2-c2c(O)c(C)nn(C)c2=O)c1 [2-225],0 (Herbicidal rate of 5% or less (almost no effect))

# System: chickweed
# Test: Test Example 5: herbicidal effect by foliage application, plastic box (Table 20, symbol P)
# Assay type: in vivo, common chickweed (Stellaria media)
# Conditions: foliage application, 320 g/ha, evaluated three weeks after application
# How it was run: as §1
row,SMILES,herbicidal effect on P: chickweed (criteria 0-5)
1,CCCC(=O)Oc1c(C)nn(C)c(=O)c1-c1c(-c2cccc(OCC(C)C)c2)sc2ccc(F)cc12 [2-222],5 (Herbicidal rate of 90% or more (almost completely withered))
2,CCCCCOc1cccc(-c2sc3ccc(F)cc3c2-c2c(O)c(C)nn(C)c2=O)c1 [2-225],5 (Herbicidal rate of 90% or more (almost completely withered))

# System: barnyard grass
# Test: Test Example 4: herbicidal effect by soil treatment (Table 19, symbol H)
# Assay type: in vivo, barnyard grass (Echinochloa crus-galli)
# Conditions: amount of applied herbicide 320 g/ha
# How it was run: as §2
row,SMILES,herbicidal effect on H: barnyard grass
1,CCCC(=O)Oc1c(C)nn(C)c(=O)c1-c1c(-c2cccc(OCC(C)C)c2)sc2ccc(F)cc12 [2-222],5 (Herbicidal rate of 90% or more (almost completely withered))
2,CCCCCOc1cccc(-c2sc3ccc(F)cc3c2-c2c(O)c(C)nn(C)c2=O)c1 [2-225],0 (Herbicidal rate of 5% or less (almost no effect))

# System: lambsquarters
# Test: Test Example 5: herbicidal effect by foliage application, plastic box (Table 20, symbol O)
# Assay type: in vivo, lambsquarters (Chenopodium album)
# Conditions: foliage application, 320 g/ha, evaluated three weeks after application
# How it was run: as §1
row,SMILES,herbicidal effect on O: lambsquarters (criteria 0-5)
1,CCCC(=O)Oc1c(C)nn(C)c(=O)c1-c1c(-c2cccc(OCC(C)C)c2)sc2ccc(F)cc12 [2-222],5 (Herbicidal rate of 90% or more (almost completely withered))
2,CCCCCOc1cccc(-c2sc3ccc(F)cc3c2-c2c(O)c(C)nn(C)c2=O)c1 [2-225],4 (Herbicidal rate of 70% or more and less than 90%)

# System: chickweed
# Test: Test Example 4: herbicidal effect by soil treatment (Table 19, symbol P)
# Assay type: in vivo, common chickweed (Stellaria media)
# Conditions: amount of applied herbicide 320 g/ha
# How it was run: as §2
row,SMILES,herbicidal effect on P: chickweed
1,CCCC(=O)Oc1c(C)nn(C)c(=O)c1-c1c(-c2cccc(OCC(C)C)c2)sc2ccc(F)cc12 [2-222],2 (Herbicidal rate of 20% or more and less than 40%)
2,CCCCCOc1cccc(-c2sc3ccc(F)cc3c2-c2c(O)c(C)nn(C)c2=O)c1 [2-225],0 (Herbicidal rate of 5% or less (almost no effect))

# System: southern crabgrass
# Test: Test Example 4: herbicidal effect by soil treatment (Table 19, symbol F)
# Assay type: in vivo, southern crabgrass (Digitaria ciliaris)
# Conditions: amount of applied herbicide 320 g/ha
# How it was run: as §2
row,SMILES,herbicidal effect on F: southern crabgrass
1,CCCC(=O)Oc1c(C)nn(C)c(=O)c1-c1c(-c2cccc(OCC(C)C)c2)sc2ccc(F)cc12 [2-222],1 (Herbicidal rate of 5% or more and less than 20%)
2,CCCCCOc1cccc(-c2sc3ccc(F)cc3c2-c2c(O)c(C)nn(C)c2=O)c1 [2-225],0 (Herbicidal rate of 5% or less (almost no effect))

# System: persian speedwell
# Test: Test Example 5: herbicidal effect by foliage application, plastic box (Table 20, symbol R)
# Assay type: in vivo, Persian speedwell (Veronica persica)
# Conditions: foliage application, 320 g/ha, evaluated three weeks after application
# How it was run: as §1
row,SMILES,herbicidal effect on R: persian speedwell (criteria 0-5)
1,CCCC(=O)Oc1c(C)nn(C)c(=O)c1-c1c(-c2cccc(OCC(C)C)c2)sc2ccc(F)cc12 [2-222],5 (Herbicidal rate of 90% or more (almost completely withered))
2,CCCCCOc1cccc(-c2sc3ccc(F)cc3c2-c2c(O)c(C)nn(C)c2=O)c1 [2-225],5 (Herbicidal rate of 90% or more (almost completely withered))

# System: velvetleaf
# Test: Test Example 5: herbicidal effect by foliage application, plastic box (Table 20, symbol M)
# Assay type: in vivo, velvetleaf (Abutilon theophrasti)
# Conditions: foliage application, 320 g/ha, evaluated three weeks after application
# How it was run: as §1
row,SMILES,herbicidal effect on M: velvetleaf (criteria 0-5)
1,CCCC(=O)Oc1c(C)nn(C)c(=O)c1-c1c(-c2cccc(OCC(C)C)c2)sc2ccc(F)cc12 [2-222],5 (Herbicidal rate of 90% or more (almost completely withered))
2,CCCCCOc1cccc(-c2sc3ccc(F)cc3c2-c2c(O)c(C)nn(C)c2=O)c1 [2-225],5 (Herbicidal rate of 90% or more (almost completely withered))

# System: lambsquarters
# Test: Test Example 4: herbicidal effect by soil treatment (Table 19, symbol O)
# Assay type: in vivo, lambsquarters (Chenopodium album)
# Conditions: amount of applied herbicide 320 g/ha
# How it was run: as §2
row,SMILES,herbicidal effect on O: lambsquarters
1,CCCC(=O)Oc1c(C)nn(C)c(=O)c1-c1c(-c2cccc(OCC(C)C)c2)sc2ccc(F)cc12 [2-222],4 (Herbicidal rate of 70% or more and less than 90%)
2,CCCCCOc1cccc(-c2sc3ccc(F)cc3c2-c2c(O)c(C)nn(C)c2=O)c1 [2-225],3 (Herbicidal rate of 40% or more and less than 70%)

# System: persian speedwell
# Test: Test Example 4: herbicidal effect by soil treatment (Table 19, symbol R)
# Assay type: in vivo, Persian speedwell (Veronica persica)
# Conditions: amount of applied herbicide 320 g/ha
# How it was run: as §2
row,SMILES,herbicidal effect on R: persian speedwell
1,CCCC(=O)Oc1c(C)nn(C)c(=O)c1-c1c(-c2cccc(OCC(C)C)c2)sc2ccc(F)cc12 [2-222],5 (Herbicidal rate of 90% or more (almost completely withered))
2,CCCCCOc1cccc(-c2sc3ccc(F)cc3c2-c2c(O)c(C)nn(C)c2=O)c1 [2-225],0 (Herbicidal rate of 5% or less (almost no effect))

# System: windgrass
# Test: Test Example 5: herbicidal effect by foliage application, plastic box (Table 20, symbol L)
# Assay type: in vivo, windgrass (Apera spica-venti)
# Conditions: foliage application, 320 g/ha, evaluated three weeks after application
# How it was run: as §1
row,SMILES,herbicidal effect on L: windgrass (criteria 0-5)
1,CCCC(=O)Oc1c(C)nn(C)c(=O)c1-c1c(-c2cccc(OCC(C)C)c2)sc2ccc(F)cc12 [2-222],4 (Herbicidal rate of 70% or more and less than 90%)
2,CCCCCOc1cccc(-c2sc3ccc(F)cc3c2-c2c(O)c(C)nn(C)c2=O)c1 [2-225],4 (Herbicidal rate of 70% or more and less than 90%)
